According to patent US20040082554A1, “Neuroactive steroid derivatives and method of use” (priority 2003, published 2004):
“Also recorded” adds a separate entry of the source.

Assays:
mice = assay: Tail flick test (latency to remove the tail from the light source); type: in vivo; settings: for dose dependence of tail flick latency: mice, 5, 10 or 15 mg/kg i.p., tested every 10 min for 120 min
Experimental: FIG. 9. […] Following the injection the mice were tested for every 10 min for 120 min. The latency to remove the tail from the light source was used as a measure of analgesia. […] The values are mean+SEM for 10-15 mice for each group. Data were analyzed using a one-way ANOVA followed by Fisher's LSD.* Denotes significance compared to control.
FIG. 10. […] Mice were injected with PACME (5, 10 or 15 mg/kg). Following the injection the mice were tested for every 10 min for 120 min. The latency to remove the tail from the light source was used as a measure of analgesia. […] Data were analyzed using a one-way ANOVA followed by Fisher's LSD. The values are mean±SEM for 10-15 mice for each group.* Denotes significance compared to control.
The data were analyzed using a one-way ANOVA followed by Fisher's LSD.

NMDA receptor [1] = assay: Behavioral hyperactivity (horizontal activity) induced by intra-striatal microinjection of NMDA; type: in vivo, rat
Experimental: Microinjection Experiments. Rats were anesthetized with sodium pentobarbital (50 mg/kg, i.p.) and placed in a stereotaxic apparatus (David Kopf Instruments). A rostro-caudal incision was then made to expose the dorsal surface of the skull. Two bilateral holes were drilled above the striatum (+1.0 mm A/P, +3.0 mm M/L, −3.0 mm D/V relative to bregma, Paxinos and Watson, 1997) and guide cannulae (9 mm, 24 gauge) were implanted and fastened to the skull using screws and dental cement. All rats were housed in individual cages following surgery. Three days post surgery rats were habituated to the photocell apparatus (AccuScan Instruments; Columbus, Ohio) for two hours. On the day of the experiment rats were rehabituated for one hour prior to the start of the experiment. […] The animals were returned to the behavior boxes and activity was monitored continuously for 60 min.
Horizontal activity was measured in 5 min blocks for 60 min immediately following microinjection. The data were analyzed with a mixed factors analysis of variance (ANOVA) with repeated measures over time in FIG. 4A. […] The data in FIG. 4B represent the 10 min time point from FIG. 4A and was analyzed using a one-way ANOVA.

NMDA receptor [2] = assay: NMDA-induced striatal dopamine release, in vivo microdialysis; parameters: species or system rat
Experimental: In vivo Microdialysis. Prior to surgery the animals were anesthetized with sodium pentobarbital (50 mg/kg, i.p) and placed in a stereotaxic apparatus (David Kopf Instruments). A rostro-caudal incision was then made to expose the dorsal surface of the skull. A hole was drilled in the skull above the striatum with a stereotaxic drill (+0.5 mm A/P and +2.9 mm M/L relative to bregma, (Paxinos and Watson, 1997). Two other holes were drilled in the skull where screws were secured. A dialysis guide cannula (CMA Microdialysis; Acton, Mass.) was lowered 3 mm ventrally and was then secured to the skull with dental cement. All rats were housed in individual cages following surgery.
No less than two days after surgery, the rats were briefly anesthetized with isoflurane to facilitate the removal of the dummy from the guide cannula and insertion of a microdialysis probe (CMA 10, dialysis membrane length of 2 mm of polycarbonate, with a molecular weight cut off of 20 kD) into the striatum. Animals were allowed to recover for 15 min prior to the initiation of the experiment following probe insertion. Artificial cerebrospinal fluid (aCSF) was pumped through the dialysis probe at a rate of 2 μl/min. Twelve 20 min samples were collected over 240 min and immediately stored at −20° C. The first six 20 min samples were collected to establish the baseline concentration of dopamine. […] At this point the perfusate for the DMSO group was changed from aCSF to one of the following solutions: NMDA (1 mM) or NMDA (1 mM) plus D-AP5 (100-200 μM). The perfusate for the steroid group was switched from aCSF to NMDA (1 mM). After collection of sample 7, the perfusate was switched back to aCSF and 5 more 20 min samples were collected. Upon termination of the experiment, samples were stored at −80° C. until analysis.
All samples were analyzed using high pressure liquid chromatography (HPLC) with electrochemical detection (ESA; Chelmsford, Mass.). The mobile phase consisted of 50 mM Na2HPO4, 20 mM citric acid, 1.5 mM heptanosulfonic acid, 0.1 mM EDTA, and 5% methanol at pH 4.0. The dopamine was separated on a 15 cm reverse phase C-18 column (Alltech; Deerfield, Ill.) and oxidized at a potential of 175 mV. Dopamine concentrations per sample were normalized to an external standard curve and plotted as percentage change from baseline.

rats = assay: Cocaine sensitization (horizontal activity after daily cocaine injections); type: in vivo, rat
Experimental: Cocaine Sensitization. Rats were habituated to the photocell apparatus (AccuScan Instruments; Columbus, Ohio) for two hours and administered saline (i.p.) one day prior to the start of the experiment. On the first day of the experiment, rats were rehabituated to the behavior boxes for one hour prior to the start of the experiment. […] Horizontal activity was measured for 2 hours after every cocaine injection. Saline-cocaine or 3α5βHS-cocaine were administered daily on 7 consecutive days.

NMDA receptors = settings: in vitro studies, Park-Chung et al., 1994; cited from earlier work

Compound: pregnanolone hemisuccinate [3α5βHS]
- tail flick latency at 90 and 120 min (mice; 3α5βHS 15 mg/kg, compared to the other groups): effective in increasing the latency
- analgesia compared to control (pair-wise analysis) (mice; 10 and 15 mg/kg i.p., at 20, 30, 40, 60, 90 min): significant levels of analgesia
- dose dependence of tail flick latency (mice): dose-dependent increase in tail flick latency; also recorded: increased the latency to remove the tail from the light source dose-dependently
- duration of analgesic effect compared with morphine (2 mg/kg, s.c.) (mice; tail flick, mice): longer lasting
- sedation (saline+3α5βHS vs saline+vehicle horizontal activity) (NMDA receptor [1]; 10 mg/kg i.p., any time point): did not induce sedation
- effect on NMDA-induced behavioral activation (horizontal activity) (NMDA receptor [1]; 1 and 10 mg/kg i.p. 10 min prior to intra-striatal NMDA, 10 min time point): decrease in horizontal activity; also recorded: blocked
- effect on NMDA-induced increase in extracellular striatal dopamine (NMDA receptor [2]; 5, 10 and 20 mg/kg i.p., 20 and 40 min following NMDA perfusion): inhibits NMDA-induced dopamine release; also recorded: blocked
- EC50 for inhibition of NMDA-induced dopamine release (NMDA receptor [2]; i.p. injection, 1 mM NMDA perfusion, at 20 min): 4 mg/kg
- effect on development of behavioral sensitization to cocaine (rats; 10 mg/kg i.p. 10 min prior to each of 7 daily cocaine injections (15 mg/kg i.p.)): inhibits the initiation of behavioral sensitization to cocaine; also recorded: inhibited the development of behavioral sensitization to cocaine
- effect on behavioral hyperactivity induced by saline administration or an acute cocaine injection (rats; highest dose used): had no effect
- action on NMDA receptors in vitro (NMDA receptors): inhibits NMDA receptors

Compound: CC(=O)[C@H]1CC[C@H]2[C@@H]3CC[C@@H]4C[C@H](OCC(=O)O)CC[C@]4(C)[C@H]3CC[C@]12C [PACME, pregnanolone carboxy methyl ether]
- tail flick latency at 90 and 120 min (mice; PACME 10 mg/kg): increased the latency
- analgesia compared to control (pair-wise analysis) (mice; PACME 7 and 10 mg/kg, at 20, 30, 40, 60 min following injection): significant levels of analgesia
- lengthening of tail flick latency relative to cut-off time (mice; PACME, dose not stated, cut-off time 10 seconds): near maximal lengthening of the latency time
- dose dependence of tail flick latency (mice): increased the latency to remove the tail from the light source dose-dependently
- duration of analgesic effect compared with morphine (2 mg/kg, s.c.) (mice; tail flick, mice): longer lasting
- analgesia compared with morphine (mice; tail flick, mice, PACME vs morphine 2 mg/kg s.c.): analgesia similar to that of morphine

Compound: CC(=O)[C@H]1CC[C@H]2[C@@H]3CC[C@@H]4C[C@H](O)CC[C@]4(C)[C@H]3CC[C@]12C [pregnanolone]
- effect on NMDA-induced increase in extracellular striatal dopamine (NMDA receptor [2]; 160 μg/kg i.p. (sub-sedative dose)): had no effect
- effect on NMDA-induced increase in extracellular striatal dopamine (NMDA receptor [2]; 160 μg/kg i.p. (sub-sedative dose), listed as Pregnanolone): no influence

Compound: NC(CCCP(=O)(O)O)C(=O)O [D-AP5]
- effect on NMDA-induced increase in extracellular striatal dopamine (NMDA receptor [2]; 100 μM or 200 μM co-perfused with 1 mM NMDA): inhibited; also recorded: attenuated in a dose-dependent manner

Compound: CN1CC[C@]23c4c5ccc(O)c4O[C@H]2[C@@H](O)C=C[C@H]3[C@H]1C5 [morphine, reference compound]
- time of greatest analgesic effect following injection (mice; morphine 2 mg/kg s.c.): 20 min
- analgesia compared to control (pair-wise analysis) (mice; morphine 2 mg/kg s.c., from 20 min to 60 or 90 min following injection): significant levels of analgesia
